Data reported in ChEMBL document CHEMBL6083276, “Pan-Transcriptional Enhanced Associated Domain Palmitoylation Pocket Covalent Inhibitor” (J Med Chem, 2024).
Active and inactive are the calls of the source. No cut-off for these calls is given here.

Experiments:
[1] = tested on: NCI-H226; test: Inhibition of CTGF gene expression in human NCI-H226 cells incubated for 24 hrs by RT-qPCR analysis; type: functional, cell-based; settings: dose 30-300 nM
[2] = tested on: NCI-H226; test: Inhibition of CYR61 gene expression in human NCI-H226 cells at 300 nM incubated for 24 hrs by RT-qPCR analysis; type: functional, cell-based
[3] = Inhibition of palmitoylation site of TEAD (unknown origin) in human Hippo Pathway/TEAD Luciferase reporter MCF7 cells assessed as reduction in transcriptional activation by measuring luciferase activity incubated for 24 hrs by Promega One-Glo luciferase reagent based assay; type: cell-based, Hippo Pathway/TEAD Luciferase reporter MCF7 cell; settings: MCF7, 24 h
[4] = tested on: Hippo Pathway/TEAD Luciferase reporter MCF7 cell; test: Inhibition of palmitoylation site of TEAD (unknown origin) in human Hippo Pathway/TEAD Luciferase reporter MCF7 cells assessed as reduction in transcriptional activation by measuring luciferase activity at 1000 nM incubated for 24 hrs by Promega One-Glo luciferase reagent based assay
[5] = tested on: NCI-H226; test: Cytotoxicity against human NCI-H226 cells assessed as reduction in cell viability incubated for 144 hrs by CellTiter-Glo luciferase assay; type: functional, cell-based; settings: NCI-H226, 144 h
[6] = Metabolic stability in mouse liver microsomes assessed as parent compound remaining measured after 30 mins by LC-MS/MS analysis; type: ADME, Microsome; settings: read-out: Stability
[7] = Metabolic stability in human liver microsomes assessed as parent compound remaining measured after 15 mins by LC-MS/MS analysis; type: ADME, Microsome; settings: read-out: Stability
[8] = Metabolic stability in mouse liver microsomes assessed as parent compound remaining measured after 15 mins by LC-MS/MS analysis; type: ADME, Microsome; settings: read-out: Stability
[9] = Metabolic stability in human liver microsomes assessed as parent compound remaining measured after 30 mins by LC-MS/MS analysis; type: ADME, Microsome; settings: read-out: Stability
[10] = molecular target: Transcriptional enhancer factor TEF-3 (Homo sapiens) (UniProt Q15561); test: Inhibition of Myc-tagged TEAD4 (unknown origin) palmitoylation transfected in HEK293 cells at 300 nM incubated for 24 hrs by palmitoylation assay; type: cell-based
[11] = tested on: HEK293; test: Cytotoxicity against HEK293 cells assessed as reduction in cell viability at 0.1 to 1 uM incubated for 12 to 48 hrs; type: toxicity, cell-based; settings: human, hek293, 1 µM; dose lower 0.1 µM, time lower 12 hrs, dose upper 1 µM, time upper 48 hrs
[12] = Selectivity index, ratio of IC50 for human NCI-H28 cells to IC50 for human NCI-H226 cells
[13] = tested on: NCI-H226; test: Cytotoxicity against human NCI-H226 cells assessed as reduction in cell viability at 0.1 to 1 uM incubated for 12 to 48 hrs; type: functional, cell-based; settings: dose 0.1-1 µM, time 12-48 hrs
[14] = tested on: NCI-H226; test: Antitumor activity against human NCI-H226 cells xenografted in mouse assessed as reduction in tumor size at 10 to 30 mg/kg, po measured upto 28 days; type: functional, organism-based; settings: dose 10-30 mg/kg, time <= 28.0 day
[15] = tested on: NCI-H226; test: Inhibition of CTGF gene expression in human NCI-H226 cells at 300 nM incubated for 24 hrs by RT-qPCR analysis; type: functional, cell-based
[16] = (§1) Inhibition of CTGF gene expression in human NCI-H226 cells at 30 nM incubated for 24 hrs by RT-qPCR analysis relative to control; type: functional
[17] = Tmax in mouse at 10 mg/kg, po measured after 24 hrs by LC-MS/MS analysis; type: ADME, organism-based; settings: in vivo
[18] = Toxicity in mouse xenografted with human NCI-H226 cells assessed as body weight loss at 10 to 30 mg/kg, po administered for 28 days; type: organism-based; settings: in vivo, 672 h, dose 10-30 mg/kg, time 28 day
[19] = tested on: NCI-H226; test: Antitumor activity against human NCI-H226 cells xenografted in mouse assessed as tumor growth inhibition at 30 mg/kg, po measured after 17 days; type: functional, organism-based; settings: time 17.0 day
[20] = (§2) Inhibition of CYR61 gene expression in human NCI-H226 cells at 30 nM incubated for 24 hrs by RT-qPCR analysis relative to control; type: functional
[21] = tested on: NCI-H226; test: Inhibition of CYR61 gene expression in human NCI-H226 cells incubated for 24 hrs by RT-qPCR analysis; type: functional, cell-based; settings: dose 30-300 nM
[22] = molecular target: Transcriptional enhancer factor TEF-1 (Homo sapiens) (UniProt P28347); test: Inhibition of Myc-tagged TEAD1 (unknown origin) palmitoylation transfected in HEK293 cells at 300 nM incubated for 24 hrs by palmitoylation assay; type: cell-based
[23] = molecular target: Transcriptional enhancer factor TEF-5 (Homo sapiens) (UniProt Q99594); test: Inhibition of Myc-tagged TEAD3 (unknown origin) palmitoylation transfected in HEK293 cells at 300 nM incubated for 24 hrs by palmitoylation assay; type: cell-based
[24] = AUClast in mouse at 10 mg/kg, po measured after 24 hrs by LC-MS/MS analysis; type: ADME, organism-based; settings: in vivo
[25] = Cmax in mouse at 10 mg/kg, po measured after 24 hrs by LC-MS/MS analysis; type: ADME, organism-based; settings: in vivo
[26] = molecular target: Transcriptional enhancer factor TEF-4 (Homo sapiens) (UniProt Q15562); test: Inhibition of Myc-tagged TEAD2 (unknown origin) palmitoylation transfected in HEK293 cells at 300 nM incubated for 24 hrs by palmitoylation assay; type: cell-based
[27] = Half-life in mouse at 10 mg/kg, po measured after 24 hrs by LC-MS/MS analysis; type: ADME, organism-based; settings: in vivo
[28] = MRT in mouse at 10 mg/kg, po measured after 24 hrs by LC-MS/MS analysis; type: ADME, organism-based; settings: in vivo
[29] = tested on: NCI-H226; test: Antitumor activity against human NCI-H226 cells xenografted in mouse assessed as tumor growth inhibition at 30 mg/kg, po administered for 28 days; type: functional, organism-based; settings: time 28.0 day
[30] = tested on: NCI-H226; test: Antitumor activity against human NCI-H226 cells xenografted in mouse assessed as reduction in tumor volume at 10 mg/kg, po administered for 28 days; type: functional, organism-based; settings: time 28.0 day
[31] = tested on: NCI-H226; test: as §1; type: functional
[32] = tested on: NCI-H226; test: as §2; type: functional

Sequence of Transcriptional enhancer factor TEF-5 (Homo sapiens) (Q99594 whole entry): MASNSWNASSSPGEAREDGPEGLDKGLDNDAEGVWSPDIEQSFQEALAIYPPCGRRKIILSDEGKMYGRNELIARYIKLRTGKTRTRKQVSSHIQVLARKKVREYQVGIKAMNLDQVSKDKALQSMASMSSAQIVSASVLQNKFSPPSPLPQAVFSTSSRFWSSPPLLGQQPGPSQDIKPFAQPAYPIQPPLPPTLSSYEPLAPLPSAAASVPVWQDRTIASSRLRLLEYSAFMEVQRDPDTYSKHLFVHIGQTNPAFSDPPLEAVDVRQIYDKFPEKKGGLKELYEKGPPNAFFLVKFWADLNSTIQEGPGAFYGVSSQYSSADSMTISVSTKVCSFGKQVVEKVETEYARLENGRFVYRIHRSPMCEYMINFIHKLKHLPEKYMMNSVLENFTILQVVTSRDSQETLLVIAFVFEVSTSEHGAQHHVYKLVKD
Sequence of Transcriptional enhancer factor TEF-1 (Homo sapiens) (P28347 whole entry): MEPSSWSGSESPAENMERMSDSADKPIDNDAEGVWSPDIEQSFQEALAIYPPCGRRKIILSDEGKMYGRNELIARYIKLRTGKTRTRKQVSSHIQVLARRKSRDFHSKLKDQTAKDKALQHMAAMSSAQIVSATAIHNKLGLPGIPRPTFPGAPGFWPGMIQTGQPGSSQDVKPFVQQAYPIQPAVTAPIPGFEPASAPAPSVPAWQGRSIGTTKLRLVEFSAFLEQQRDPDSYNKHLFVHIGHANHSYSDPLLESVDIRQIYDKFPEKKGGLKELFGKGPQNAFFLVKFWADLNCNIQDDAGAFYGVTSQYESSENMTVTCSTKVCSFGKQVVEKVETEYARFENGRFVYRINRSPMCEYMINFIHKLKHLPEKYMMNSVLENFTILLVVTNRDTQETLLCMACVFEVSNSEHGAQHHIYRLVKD
Sequence of Transcriptional enhancer factor TEF-3 (Homo sapiens) (Q15561 whole entry): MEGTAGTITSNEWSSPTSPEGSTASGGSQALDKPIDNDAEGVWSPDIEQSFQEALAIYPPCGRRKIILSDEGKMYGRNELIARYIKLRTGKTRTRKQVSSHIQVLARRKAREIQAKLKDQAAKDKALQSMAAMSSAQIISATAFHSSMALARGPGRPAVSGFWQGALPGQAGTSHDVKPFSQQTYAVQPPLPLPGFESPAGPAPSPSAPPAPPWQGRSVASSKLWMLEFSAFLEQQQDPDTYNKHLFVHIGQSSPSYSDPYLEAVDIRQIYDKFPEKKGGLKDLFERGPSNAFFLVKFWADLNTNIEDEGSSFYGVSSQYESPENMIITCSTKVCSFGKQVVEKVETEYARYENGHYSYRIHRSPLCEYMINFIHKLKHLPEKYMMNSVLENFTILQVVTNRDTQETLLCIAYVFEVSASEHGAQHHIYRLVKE
Sequence of Transcriptional enhancer factor TEF-4 (Homo sapiens) (Q15562 whole entry): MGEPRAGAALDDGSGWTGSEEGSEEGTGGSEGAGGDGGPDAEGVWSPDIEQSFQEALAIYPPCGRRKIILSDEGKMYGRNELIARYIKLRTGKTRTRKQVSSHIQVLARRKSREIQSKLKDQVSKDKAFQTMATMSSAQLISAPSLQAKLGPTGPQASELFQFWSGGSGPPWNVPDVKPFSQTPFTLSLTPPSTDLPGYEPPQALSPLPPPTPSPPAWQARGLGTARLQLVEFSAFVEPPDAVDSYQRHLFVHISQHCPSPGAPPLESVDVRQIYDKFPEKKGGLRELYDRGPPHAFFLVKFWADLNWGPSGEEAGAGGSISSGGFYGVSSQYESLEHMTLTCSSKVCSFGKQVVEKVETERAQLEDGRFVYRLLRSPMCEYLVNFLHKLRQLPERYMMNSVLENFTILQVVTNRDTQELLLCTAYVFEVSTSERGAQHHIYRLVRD

SMILES: CN(C)C/C=C/C(=O)N1CCc2ccc(-c3ccc(C(F)(F)F)cc3)cc2C1
- inhibition [1]: Dose-dependent-effect
- inhibition [2]: Active; Minimal Inhibition Observed
- IC50 [3]: 0.65 nM
- inhibition [4]: Active; Incomplete Inhibition Observed

SMILES: C=CC(=O)N1CCc2ccc(-c3ccc(C(F)(F)F)cn3)cc2C1
- IC50 [5]: 26.6 nM
- IC50 [3]: 4.11 nM

SMILES: C=CC(=O)N1CCc2ccc(-c3cccc(C(F)(F)F)c3)cc2C1
- IC50 [5]: 85.2 nM
- IC50 [3]: 0.88 nM

SMILES: C=CC(=O)N1CCc2ccc(-c3ccc(C(F)(F)F)cc3Cl)cc2C1
- IC50 [5]: 119 nM
- IC50 [3]: 1.04 nM

SMILES: C=CC(=O)N1CCc2ccc(-c3ccccc3)cc2C1
- IC50 [5]: 7.04 nM
- IC50 [3]: 3.15 nM

SMILES: C=CC(=O)Nc1ccc(C)c(Oc2ccc(Cl)cc2)c1
- remaining at 0.5 h [6]: 9.7%
- IC50 [5]: 10.6 nM
- remaining at 0.25 h [7]: 77.6%
- remaining at 0.25 h [8]: 26.4%
- IC50 [3]: 0.61 nM
- remaining at 0.5 h [9]: 63.5%

SMILES: C=CC(=O)N1CCc2ccc(-c3ccc(C(F)(F)F)cc3)cc2C1
- inhibition [10]: Active
- remaining at 0.5 h [6]: 62.7%
- Activity [11]: Non-toxic
- Ratio IC50 [12]: >150
- IC50 [5]: 3.34 nM
- inhibition [1]: Dose-dependent-effect
- Activity [13]: inactive
- remaining at 0.25 h [7]: 95.9%
- Activity [14]: Active
- inhibition [15]: Active; Higher Inhibition Observed
- remaining at 0.25 h [8]: 75.9%
- inhibition at 0.03 µM [16]: > 50%
- Tmax [17]: 1.12 h
- inhibition [2]: Active; Higher Inhibition Observed
- IC50 [3]: 0.34 nM
- Activity [18]: Non-toxic
- Activity [19]: Active; Compound Showed Sustain Suppression Without Rebound
- inhibition at 0.03 µM [20]: > 50%
- inhibition [21]: Dose-dependent-effect
- inhibition [22]: Active
- inhibition [23]: Active
- AUC(0-t) at 24 h [24]: 3810 ng·h/mL
- Cmax [25]: 974 ng/mL
- remaining at 0.5 h [9]: 79.6%
- inhibition [26]: Active
- half-life [27]: 3.06 h
- MRT [28]: 6.08 h

SMILES: C=CC(=O)N1CCc2ccc(-c3cccs3)cc2C1
- IC50 [5]: 402 nM
- IC50 [3]: 5.36 nM

SMILES: C=CC(=O)N1CCc2ccc(-c3ccc(OC(F)(F)F)cc3)cc2C1
- IC50 [5]: 22.2 nM
- IC50 [3]: 0.7 nM

SMILES: C=CC(=O)N1CCc2ccc(-c3ccc(C)cc3)cc2C1
- IC50 [5]: 3.03 nM
- IC50 [3]: 4.26 nM

SMILES: C=CC(=O)N1CCc2ccc(-c3ccc(C(F)(F)F)c(F)c3)cc2C1
- IC50 [5]: 115 nM
- IC50 [3]: 0.36 nM

SMILES: CC#CC(=O)N1CCc2ccc(-c3ccc(C(F)(F)F)cc3)cc2C1
- IC50 [3]: 52.4 nM

SMILES: C=CC(=O)N1CCc2ccc(-c3ccc(C(F)(F)F)nc3)cc2C1
- IC50 [5]: 391 nM
- IC50 [3]: 5.48 nM

SMILES: C=C(F)C(=O)N1CCc2ccc(-c3ccc(C(F)(F)F)cc3)cc2C1
- Activity [29]: Active
- remaining at 0.5 h [6]: 85.1%
- Activity [11]: Non-toxic
- Ratio IC50 [12]: >20
- IC50 [5]: 30.9 nM
- Activity [13]: inactive
- remaining at 0.25 h [7]: 98.2%
- Activity [30]: Active; Modest Effect Observed
- inhibition [15]: Active
- remaining at 0.25 h [8]: 89.2%
- inhibition [31]: inactive
- Tmax [17]: 0.75 h
- inhibition [2]: Active
- IC50 [3]: 1.34 nM
- Activity [18]: Non-toxic
- inhibition [32]: inactive
- inhibition [22]: Active
- inhibition [23]: Active
- AUC(0-t) at 24 h [24]: 5410 ng·h/mL
- Cmax [25]: 1390 ng/mL
- remaining at 0.5 h [9]: 97.7%
- half-life [27]: 5.62 h
- MRT [28]: 7.5 h

SMILES: CCC(=O)N1CCc2ccc(-c3ccc(C(F)(F)F)cc3)cc2C1
- IC50 [3]: 1510 nM

SMILES: C[C@H](NC(=O)c1ccc2c(-c3ccc(C(F)(F)F)cc3)cccc2c1)c1ccccn1
- IC50 [5]: 27.1 nM
- IC50 [3]: 1.9 nM

SMILES: C=CC(=O)N1CCc2ccc(-c3ccc(F)cc3)cc2C1
- IC50 [5]: 21.6 nM
- IC50 [3]: 0.84 nM
